Results reported in ChEMBL document CHEMBL2057122, “Synthesis and positive inotropic evaluation of N-(1-oxo-1,2,4,5-tetrahydro-[1,2,4]triazolo[4,3-a]quinolin-7-yl)acetamides bearing piperazine and 1,4-diazepane moieties” (Bioorg Med Chem Lett, 2012).
Activity calls are given as the source filed them. The rule behind the calls is not given here.

What was measured:
[1] = species: Oryctolagus cuniculus; assay: (§1) Positive inotropic effect in New Zealand White rabbit left atrium assessed as increase in stroke volume at 3 X 10^-5 M by electrocardiogram analysis; type: functional; settings: Cardiac atrium
[2] = as §1; type: functional, Oryctolagus cuniculus, Cardiac atrium
[3] = species: Oryctolagus cuniculus; assay: Positive inotropic effect in New Zealand White rabbit left atrium assessed as increase in stroke volume at 1 X 10^-4 M by electrocardiogram analysis; type: functional, tissue-based; settings: Cardiac atrium
[4] = Chronotropic effect in New Zealand White rabbit left atrium assessed as change in heart rate by electrocardiogram analysis relative to control; type: tissue-based, Oryctolagus cuniculus, Cardiac atrium
[5] = species: Oryctolagus cuniculus; assay: Positive inotropic effect in New Zealand White rabbit beating left atrium assessed as increase in stroke volume at 30 uM/L by electrocardiogram analysis; type: functional, tissue-based; settings: Cardiac atrium

Structure (SMILES)	Activity [1]	Activity [2]	Activity [3]	Activity [4]	Activity [5]
O=C(CN1CCN(Cc2cccc(Br)c2)CC1)Nc1ccc2c(c1)CCc1n[nH]c(=O)n1-2	inactive	–	–	–	–
O=C(CN1CCCN(Cc2ccc(Cl)cc2)CC1)Nc1ccc2c(c1)CCc1n[nH]c(=O)n1-2	–	15.48%	inactive	121.68 bpm	inactive
COc1cc(CN2CCN(CC(=O)Nc3ccc4c(c3)CCc3n[nH]c(=O)n3-4)CC2)ccc1OCc1ccc(Cl)cc1	–	2.22%	–	–	–
O=C(CN1CCCN(Cc2ccccc2Cl)CC1)Nc1ccc2c(c1)CCc1n[nH]c(=O)n1-2	–	8.98%	–	118.36 bpm	inactive
Cc1[nH]c(=O)c(C#N)cc1-c1ccncc1 [MILRINONE]	–	2.46%	–	–	inactive
O=C(CN1CCN(Cc2ccc(Cl)cc2)CC1)Nc1ccc2c(c1)CCc1n[nH]c(=O)n1-2	–	3.09%	–	–	inactive
COc1cc(CN2CCN(CC(=O)Nc3ccc4c(c3)CCc3n[nH]c(=O)n3-4)CC2)ccc1OCc1ccccc1	–	2.26%	–	–	–
O=C(CN1CCN(Cc2c(Cl)cccc2Cl)CC1)Nc1ccc2c(c1)CCc1n[nH]c(=O)n1-2	inactive	–	–	–	–
Cc1ccc(CN2CCN(CC(=O)Nc3ccc4c(c3)CCc3n[nH]c(=O)n3-4)CC2)cc1	–	5.48%	–	–	inactive
O=C(CN1CCN(Cc2ccccc2)CC1)Nc1ccc2c(c1)CCc1n[nH]c(=O)n1-2	–	3.56%	–	–	inactive
COc1ccc(CN2CCN(CC(=O)Nc3ccc4c(c3)CCc3n[nH]c(=O)n3-4)CC2)cc1	–	1.46%	–	–	–
O=C(CN1CCCN(Cc2ccccc2)CC1)Nc1ccc2c(c1)CCc1n[nH]c(=O)n1-2	–	9.07%	–	90.01 bpm	inactive
O=C(CN1CCN(Cc2ccccc2F)CC1)Nc1ccc2c(c1)CCc1n[nH]c(=O)n1-2	–	1.82%	–	–	–
O=C(CN1CCN(Cc2ccc(F)cc2)CC1)Nc1ccc2c(c1)CCc1n[nH]c(=O)n1-2	inactive	–	–	–	–
O=C(CN1CCN(Cc2ccc(Br)cc2)CC1)Nc1ccc2c(c1)CCc1n[nH]c(=O)n1-2	inactive	–	–	–	–
O=C(CN1CCN(Cc2cccc(Cl)c2)CC1)Nc1ccc2c(c1)CCc1n[nH]c(=O)n1-2	–	3.46%	–	–	inactive
O=C(CN1CCCN(Cc2cccc(Cl)c2)CC1)Nc1ccc2c(c1)CCc1n[nH]c(=O)n1-2	–	6.41%	–	120.84 bpm	inactive
O=C(CN1CCN(C/C=C/c2ccccc2)CC1)Nc1ccc2c(c1)CCc1n[nH]c(=O)n1-2	–	9.4%	inactive	99.89 bpm	inactive
O=C(CN1CCN(Cc2ccccc2Br)CC1)Nc1ccc2c(c1)CCc1n[nH]c(=O)n1-2	inactive	–	–	–	–
O=C(CN1CCN(Cc2ccccc2Cl)CC1)Nc1ccc2c(c1)CCc1n[nH]c(=O)n1-2	–	4.01%	–	–	inactive
O=C(CN1CCN(Cc2cccc(F)c2)CC1)Nc1ccc2c(c1)CCc1n[nH]c(=O)n1-2	inactive	–	–	–	–
Cc1ccc(CN2CCCN(CC(=O)Nc3ccc4c(c3)CCc3n[nH]c(=O)n3-4)CC2)cc1	–	6.75%	–	111.86 bpm	inactive
